Target: T1, purified pig brain-derived tubulin (Sus scrofa, UniProt P02550+P02554)
T1 construct: purified pig brain-derived tubulin (final concentration: 2 mg/mL); purchased Cytoskeleton, Inc. (Denver, Colo., USA); host or cells: pig brain (tissue-purified)
Test: Example 7: fluorescence-based assay of tubulin polymerization reaction
Assay type: biochemical
Experimental: S-nitroso-N-acetyl-D,L-penicillamine (SNAP), which is a NO donor, was purchased from Cayman Chemical Co. (Ann Arbor, Mich., USA) and used. A tubulin polymerization analysis kit was purchased from Cytoskeleton, Inc. (Denver, Colo., USA) and used. For paclitaxel, a paclitaxel included in the analysis kit was used as paclitaxel. Docetaxel was purchased from Sigma-Aldrich Co. (St. Louis, Mo., USA) and was used as docetaxel.
A fluorescence-based assay of tubulin polymerization reaction was carried out according to the manufacturer's instruction of the kit. That is, purified pig brain-derived tubulin (final concentration: 2 mg/mL) and SNAP (final concentration: 200 or 500 μmol/L) were incubated at room temperature for 15 minutes or longer in the buffer solution included in the kit. Subsequently, paclitaxel (final concentration: 3 μmmol/L) or docetaxel (final concentration: 1 μmol/L), and […] (final concentration: 1 mmol/L) were added to this buffer mixture, and then was incubated for 60 minutes at 37° C. During this incubation, the fluorescence intensity (measurement wavelength: excitation 350 nm/fluorescence 435 nm) was measured every one minute by using a microplate reader (Spectramax, Molecular Devices, LLC, Sunnyvale, Calif., USA). The value of fluorescence intensity was expressed as a percentage relative to the SNAP and taxane-untreated group by using the value obtained 60 minutes after the initiation of the reaction, which corresponded to the equilibrium steady-state phase, and the average value for three experiments was taken as the value.
The results are expressed as the mean value (Mean)±standard error (SEM) of five independent experiments. A comparison between a paclitaxel- or docetaxel-treated group and an untreated group was carried out by an unpaired statistical test (Student's t-test) of the difference between two groups. A comparison between a SNAP-untreated group (control group) and SNAP-treated groups (200 μmol/L and 500 μmol/L) in the presence or absence of the taxane-family drugs was carried out by Dunnett's multiple comparison test. A difference value of less than 5% was considered to be statistically significant. For the data processing, Graphpad Prism version 5.03 was used.

[1] = SNAP 200 or 500 μmol/L, 60 minutes

T1 sequence (P02554 whole entry): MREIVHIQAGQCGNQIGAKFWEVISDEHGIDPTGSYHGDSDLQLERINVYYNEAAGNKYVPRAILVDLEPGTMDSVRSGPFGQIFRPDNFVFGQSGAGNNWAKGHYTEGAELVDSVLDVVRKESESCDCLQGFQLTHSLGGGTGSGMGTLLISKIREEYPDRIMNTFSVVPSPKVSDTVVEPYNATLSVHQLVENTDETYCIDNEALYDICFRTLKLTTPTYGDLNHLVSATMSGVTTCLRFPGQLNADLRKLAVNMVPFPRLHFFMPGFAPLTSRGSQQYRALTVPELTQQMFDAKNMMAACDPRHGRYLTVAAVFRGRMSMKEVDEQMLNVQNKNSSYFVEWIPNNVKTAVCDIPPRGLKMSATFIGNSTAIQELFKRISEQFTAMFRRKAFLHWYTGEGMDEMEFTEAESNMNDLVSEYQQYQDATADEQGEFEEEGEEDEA
T1 sequence (P02550 whole entry): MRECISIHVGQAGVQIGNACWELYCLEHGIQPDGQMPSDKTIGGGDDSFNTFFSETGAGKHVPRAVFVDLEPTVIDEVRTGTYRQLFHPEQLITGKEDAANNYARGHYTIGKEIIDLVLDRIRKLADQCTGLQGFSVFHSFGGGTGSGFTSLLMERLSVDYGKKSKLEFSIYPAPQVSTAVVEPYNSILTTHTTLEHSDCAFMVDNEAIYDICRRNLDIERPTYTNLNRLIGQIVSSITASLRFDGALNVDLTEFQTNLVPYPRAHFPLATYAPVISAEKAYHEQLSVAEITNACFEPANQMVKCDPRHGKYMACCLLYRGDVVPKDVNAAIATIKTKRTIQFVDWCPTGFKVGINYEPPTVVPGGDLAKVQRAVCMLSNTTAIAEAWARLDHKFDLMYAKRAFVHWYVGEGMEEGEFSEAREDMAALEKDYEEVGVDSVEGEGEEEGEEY

| action of SNAP on the spontaneous tubulin polymerization reaction (SNAP 200 or 500 μmol/L, absence of taxanes, 60 minutes) | action of SNAP on the tubulin polymerization reaction promoted by docetaxel [1] | action of SNAP on the tubulin polymerization reaction promoted by paclitaxel [1] | tubulin polymerization (fluorescence intensity) as compared with the taxane-untreated group (docetaxel final concentration 1 μmol/L, 60 minutes after initiation, P<0.001) | SMILES |
| --- | --- | --- | --- | --- |
| significantly suppressed | significantly suppressed | significantly suppressed |  | CC(=O)NC(C(=O)O)C(C)(C)SN=O (racemic) [SNAP, S-nitroso-N-acetyl-D,L-penicillamine] |
|  |  |  | 184.1% | CC(=O)O[C@@]12CO[C@@H]1C[C@H](O)[C@@]1(C)C(=O)[C@H](O)C3=C(C)[C@@H](OC(=O)[C@H](O)[C@@H](NC(=O)OC(C)(C)C)c4ccccc4)C[C@@](O)([C@@H](OC(=O)c4ccccc4)[C@H]21)C3(C)C [docetaxel] |

Reference: US20140066385A1, “METHOD FOR TREATING CANCER BY COMBINED USE OF DRUGS” (Astellas Pharma Inc., priority 2011, published 2014)
